Results published in patent US4176009A, “Method of measuring collagenase activity” (Ajinomoto Co., Inc., priority 1976, dated 1979).
Non-standard residues stand in square brackets, D forms with d. Residues, ends and D or L forms follow the SMILES beside them. *: point of attachment. X1 = O=S(=O)(c1ccc(N=Nc2ccc(O)c3ccccc23)cc1)*; X2 = O=C(c1ccc(N=Nc2ccccc2)cc1)*

Assays:
purified collagenase [1] = assay: Hydrolysis of NABS-peptide by purified collagenase (Example 16); type: biochemical, tadpole; details: 5×10^-4 M in 20% ethanol-Tris-HCl pH 7.8, collagenase 17.4 U/ml, 60 minutes at 37° C.
Experimental: (§1) Purified collagenase used in Examples was prepared from cultured media of tadpole skin explants as described in Biochem. Biophs. Acta, 263 564(1972), and non-specific peptidases were prepared by subjecting 5 ml of fresh adult human serum to chromatography on a calibrated Sephadex G-200 superfine gel column equilibrated with 0.05 M Tris-HCl buffer, pH 7.5, containing 0.15 M NaCl and 5 mM CaCl2, and gathering the effluent fractions corresponding to molecular weights of 100,000-180,000.
NABS-Pro-Gln-Gly-Ile-Ala-Gly-Gln-D-Arg-OH was dissolved in 20% ethanol-0.05 M Tris-HCl buffer, pH 7.8, containing 0.15 M NaCl and 5 mM CaCl2 to make a concentration of 5×10^-4 M. 0.5 ml of the solution was mixed with 0.1 ml of the purified collagenase (17.4 U/ml) and incubated for 60 minutes at 37° C. After stopping the enzyme reaction by adding 0.1 ml of 5 N-hydrochloric acid, the NABS-peptide fragments released were extracted with 1 ml ethyl acetate, followed by centrifugation at 3,000-5,000 rpm and room temperature for 10 minutes. The degree of hydrolysis was determined by measuring the absorbance of the organic layer at 389 nm.

purified collagenase [2] = assay: Hydrolysis of PAB-peptide by purified collagenase (Example 17); type: biochemical, tadpole; details: 5×10^-4 M in Tris-HCl pH 7.8, collagenase 17.4 U/ml, 60 minutes at 37° C.
Experimental: as §1
PAS-Pro-Gln-Gly-Ile-Ala-Gly-Gln-D-Arg-OH was dissolved in 0.05 M Tris-HCl buffer, pH 7.8, containing 0.15 M NaCl and 5 mM CaCl2 to make a concentration of 5×10^-4 M. 0.1 ml of the solution was mixed with 0.1 ml of the purified collagenase (17.4 U/ml) and incubated for 60 minutes at 37° C. After stopping the enzyme reaction by adding 0.5 ml of 1 N hydrochloric acid, the PAB-peptide fragments released were extracted with 1 ml ethyl acetate after saturated with sodium chloride, and worked up as in Example 16. The degree of hydrolysis was determined by measuring the absorbance of the organic layer at 325 nm.

| degree of hydrolysis, OD389/hr/ml (purified collagenase [1]) | Compound | degree of hydrolysis, OD325/hr/ml (purified collagenase [2]) |
| --- | --- | --- |
| 0.100 OD389/hr/ml | CC[C@H](C)[C@H](NC(=O)CNC(=O)[C@H](CCC(N)=O)NC(=O)[C@@H]1CCCN1S(=O)(=O)c1ccc(N=Nc2ccc(O)c3ccccc23)cc1)C(=O)N[C@@H](C)C(=O)NCC(=O)N[C@@H](CCC(N)=O)C(=O)N[C@H](CCCNC(=N)N)C(=O)O [Example 2, NABS-Pro-Gln-Gly-Ile-Ala-Gly-Gln-D-Arg-OH] (X1-PQGIAGQ[dR]-OH) |  |
|  | CC[C@H](C)[C@H](NC(=O)CNC(=O)[C@H](CCC(N)=O)NC(=O)[C@@H]1CCCN1C(=O)c1ccc(N=Nc2ccccc2)cc1)C(=O)N[C@@H](C)C(=O)NCC(=O)N[C@@H](CCC(N)=O)C(=O)N[C@H](CCCNC(=N)N)C(=O)O [Example 3, PAB-Pro-Gln-Gly-Ile-Ala-Gly-Gln-D-Arg-OH] (X2-PQGIAGQ[dR]-OH) | 1.117 OD325/hr/ml |
